Results taken from patent US11608332B2, “FGFR4 inhibitor and preparation method and use thereof” (Jiangsu Hansoh Pharmaceutical Group Co., Ltd., priority 2016, dated 2023).

What was measured:
Hep 3B cells = assay: Inhibition of Hep 3B cell proliferation (CellTiter-Glo); type: cell-based; conditions: Homo sapiens, Hep3B, 72 hours
Description: 3. Experiment on the Inhibition of Hep 3B Cell Proliferation
In this experiment, the inhibitory effect of the compounds on Hep 3B cell proliferation was tested by a CellTiter-Glo method, and the half maximal inhibitory concentration (IC50) of the compounds on the activity of cell proliferation was determined.
1) A 96-well cell culture plate was seeded with 50˜100 μL of Hep 3B cell suspension at a density of 1-5×10^4 cells/ml. The culture plate was incubated in an incubator for 16-24 hours (37° C., 5% CO2).
(§1) 2) Different concentrations of the test compound in a gradient dilution were added to the cells in the culture plate. The culture plate was incubated in an incubator for 72 hours (37° C., 5% CO2).
3) 50-100 μL of CellTiter-Glo reagent were added to each well. Then, the culture plate was shaken or left to stand for 5˜30 minutes at room temperature.
(§2) 4) The chemiluminescence signal values of each plate were determined by a microplate reader.
(§3) 5) The inhibition rates were calculated according to the chemiluminescence signal values.
6) The IC50 of the compound was obtained by curve fitting according to the inhibition rates at different concentrations, and the cell activity of the specific example compounds is shown in Table 2.

HuH-7 cells = assay: Inhibition of HuH-7 cell proliferation (CellTiter-Glo); type: cell-based; conditions: Homo sapiens, 72 hours
Description: 4. Experiment on the Inhibition of HuH-7 Cell Proliferation
In this experiment, the inhibitory effect of the compounds on HuH-7 cell proliferation was tested by a CellTiter-Glo method, and the half maximal inhibitory concentration (IC50) of the compounds on the activity of cell proliferation was determined.
1) A 96-well cell culture plate was seeded with 50˜100 μL of HuH-7 cell suspension at a density of 1-5×10^4 cells/ml. The culture plate was incubated in an incubator for 16˜24 hours (37° C., 5% CO2).
as §1
(§4) 3) 50˜100 μL of CellTiter-Glo reagent were added to each well. Then, the culture plate was shaken or left to stand for 5˜30 minutes at room temperature.
as §2, §3
6) The IC50 of the compound was obtained by curve fitting according to the inhibition rates at different concentrations, and the cell activity of the specific Example compounds is shown in Table 2.

SK-HEP-1 cells = assay: Inhibition of SK-HEP-1 cell proliferation (CellTiter-Glo); type: cell-based; conditions: Homo sapiens, SK-HEP1, 72 hours
Description: 5. Experiment on the Inhibition of SK-HEP-1 Cell Proliferation
In this experiment, the inhibitory effect of the compounds on SK-HEP-1 cell proliferation was tested by a CellTiter-Glo method, and the half maximal inhibitory concentration (IC50) of the compounds on the activity of cell proliferation was determined.
1) A 96-well cell culture plate was seeded with 50˜100 μL of SK-HEP-1 cell suspension at a density of 1-5×10^4 cells/ml. The culture plate was incubated in an incubator for 16˜24 hours (37° C., 5% CO2).
as §1, §4, §2, §3
The IC50 of the compound was obtained by curve fitting according to the inhibition rates at different concentrations, and the cell activity of the specific Example compounds is shown in Table 2.

[1] = Pharmacokinetic (PK) analysis in rats; type: in vivo, Sprague Dawley (SD) rats; conditions: SD rats, single intragastric administration, 5 mg/kg, plasma; for AUC(0-t): read-out: Area Under Curve AUC0-t; for AUC(0-inf): read-out: Area Under Curve AUC0-∞; for half-life: read-out: Half-Time t1/2 (converted); for Cmax: read-out: Plasma Concentration Cmax
Description: 6. Pharmacokinetic (PK) Analysis in Rats
Mode of administration: a single intragastric administration.
Formulation: 0.5% CMC and 1% Tween 80, ultrasonic dissolution.
Sampling points: 0.5, 1, 2, 4, 6, 8 and 24 hours after administration.
1. 1.0 ml of intravenous blood was collected and placed in a K2EDTA test tube.
The blood was centrifuged at room temperature at the speed of 1000˜3000×g for 5˜20 minutes to isolate the plasma, which was then stored at −80° C. 2. 160 μL of acetonitrile were added to 40 μL of plasma sample for precipitation, and then the mixture was centrifuged at the speed of 500˜2000×g for 5˜20 minutes. 3. 100 μL of treated solution were taken, and the concentration of the test compound was analyzed by LC/MS/MS. The LC/MS/MS analytical instrument was AB Sciex API 4000.
Liquid Chromatography Analysis:
Condition of Liquid chromatography: Shimadzu LC-20AD pump
Chromatographic column: phenomenex Gemiu 5 um C18 50×4.6 mm
Mobile phase: Solution A is 0.1% aqueous formic acid solution, and solution B is acetonitrile
Elution time: 0-3.5 minutes, the eluent was as follows:
Mass spectrometry analysis:
Mass spectrometer setup conditions: positive ion electrospray ionization (ESI) mode.

FGFR1 kinase = FGFR1 kinase (Homo sapiens (Human), UniProt P11362); assay: Enzymologic experiment of FGFR1 (TR-FRET); type: biochemical; conditions: TR-FRET kinase activity
FGFR1 kinase, sequence (P11362 22-822): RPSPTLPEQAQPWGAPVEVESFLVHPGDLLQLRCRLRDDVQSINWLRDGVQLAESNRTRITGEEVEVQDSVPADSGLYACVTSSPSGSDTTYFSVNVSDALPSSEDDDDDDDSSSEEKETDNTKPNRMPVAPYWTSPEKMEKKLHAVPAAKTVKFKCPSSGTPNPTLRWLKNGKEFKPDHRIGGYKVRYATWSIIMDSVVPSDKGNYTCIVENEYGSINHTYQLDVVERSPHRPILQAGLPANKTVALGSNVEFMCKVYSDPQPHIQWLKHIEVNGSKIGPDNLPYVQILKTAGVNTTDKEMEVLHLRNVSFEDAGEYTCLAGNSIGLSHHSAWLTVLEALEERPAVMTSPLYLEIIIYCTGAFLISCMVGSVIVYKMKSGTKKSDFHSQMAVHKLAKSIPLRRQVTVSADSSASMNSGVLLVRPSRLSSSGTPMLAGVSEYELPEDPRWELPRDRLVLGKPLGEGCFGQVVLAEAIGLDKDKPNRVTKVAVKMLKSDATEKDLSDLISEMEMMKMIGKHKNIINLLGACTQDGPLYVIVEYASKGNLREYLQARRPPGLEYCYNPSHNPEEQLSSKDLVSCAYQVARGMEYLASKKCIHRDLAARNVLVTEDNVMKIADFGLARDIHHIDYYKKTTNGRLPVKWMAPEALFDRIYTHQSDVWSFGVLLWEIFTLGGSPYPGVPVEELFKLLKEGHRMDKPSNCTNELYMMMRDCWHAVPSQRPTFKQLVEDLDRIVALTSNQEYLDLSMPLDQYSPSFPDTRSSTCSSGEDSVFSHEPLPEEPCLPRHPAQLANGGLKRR
Description: 2. Enzymologic Experiment of FGFR1
In this experiment, the inhibitory effect of the compounds on FGFR1 kinase activity was tested by a fluorescence resonance energy transfer (TR-FRET) method, and the half maximal inhibitory concentration (IC50) of the compounds on the FGFR1 kinase activity was determined.
1) 1˜5 μL of FGFR1 enzymatic solution was added to a 384-well plate, and the final concentration of the enzyme was 0.1˜5 nM.
2) 1˜5 μL of diluted solution in gradient of the compound was added.
3) 1˜5 μL of a substrate mixture containing substrate polypeptide with a final concentration of 5˜50 nM and ATP with a final concentration of 10˜200 μM was added.
4) The mixture was incubated for 0.5-3 hours at room temperature.
5) 10 μL of EDTA and a test solution comprising labeled antibody were added, and the plate was incubated for 1 hour at room temperature.
6) The fluorescence signal values of each plate were determined by a microplate reader at 665 nm.
7) The inhibition rates were calculated according to the fluorescence signal values.
The IC50 of the compound was obtained by curve fitting according to the inhibition rates at different concentrations, and the enzymatic activity of the specific example compounds is shown in Table 1.

| Compound | IC50 (Hep 3B cells) | IC50 (HuH-7 cells) | IC50 (SK-HEP-1 cells) | Peak Time tmax [1] | AUC(0-t) ([1]; Sprague-Dawley, rat, po) | AUC(0-inf) ([1]; Sprague-Dawley, rat, po) | half-life ([1]; Sprague-Dawley, rat, po) | MRT ([1]; Sprague-Dawley, rat, po, read-out: Mean Residence Time MRT) | Cmax ([1]; Sprague-Dawley, rat, po) | IC50 (FGFR1 kinase) |
| --- | --- | --- | --- | --- | --- | --- | --- | --- | --- | --- |
| COC[C@@H](C)Nc1cc(NC(=O)N2CCCc3cc(CN4CC[C@@H](OC)C4=O)c(C=O)nc32)ncc1C#N [Example 91, N-(5-cyano-4-(((R)-1-methoxypropan-2-yl)amino)pyridin-2-yl)-7-formyl-6-(((R)-3-methoxy-2-carbonylpyrrolidin-1-yl)methyl)-3,4-dihydro-1,8-naphthyridin-1(2H)-carboxamide] | 1.5 nM | 3.3 nM | > 10000 nM | 0.5 h | 12900 ng·h/mL | 13000 ng·h/mL | 0.9 h | 2.8 h | 2790 ng/mL |  |
| COCCNc1cc(NC(=O)N2CCCc3cc(CN(C=O)C[C@H]4CCCO4)c(C=O)nc32)ncc1C#N [Example 110, (R)—N-(5-Cyano-4-((2-methoxyethyl)amino)pyridin-2-yl)-7-formyl-6-((N-((tetrahydrofuran-2-yl)methyl)formylamino)methyl)-3,4-dihydro-1,8-naphthyridin-1(2H)-carboxamide] | 8.3 nM | 28.5 nM | > 10000 nM |  |  |  |  |  |  |  |
| COCCNc1cc(NC(=O)N2CCCc3cc(CN(C=O)[C@H]4CCOC4)c(C=O)nc32)ncc1C#N [Example 114, (S)—N-(5-Cyano-4-((2-methoxyethyl)amino)pyridin-2-yl)-7-formyl-6-((N-(tetrahydrofuran-3-yl)formylamino)methyl)-3,4-dihydro-1,8-naphthyridin-1(2H)-carboxamide] | 8.6 nM | 26.7 nM | > 10000 nM |  |  |  |  |  |  |  |
| COCCNc1cc(NC(=O)N2CCCc3cc(CN4CCC(OC)C4=O)c(C=O)nc32)ncc1C#N (centres unmarked) [Example 44, N-(5-Cyano-4-((2-methoxyethyl)amino)pyridin-2-yl)-7-formyl-6-((3-methoxy-2-carbonylpyrrolidin-1-yl)methyl)-3,4-dihydro-1,8-naphthyridin-1(2H)-carboxamide] | 6 nM | 6.9 nM | > 10000 nM | 2 h | 9690 ng·h/mL | 9820 ng·h/mL | 1 h |  | 3010 ng/mL |  |
| CO[C@H]1CCN(c2cc(NC(=O)N3CCCc4cc(CN5CC[C@H](OC)C5=O)c(C=O)nc43)ncc2C#N)C1 [Example 53, N-(5-Cyano-4-((S)-3-methoxypyrrolidin-1-yl)pyridin-2-yl)-7-formyl-6-(((S)-3-methoxy-2-carbonylpyrrolidin-1-yl)methyl)-3,4-dihydro-1,8-naphthyridin-1(2H)-carboxamide] |  |  |  |  |  |  |  |  |  | > 10000 nM |
| COCCNc1cc(NC(=O)N2CCCc3cc(CN(C[C@@H]4CCCO4)C(C)=O)c(C=O)nc32)ncc1C#N [Example 111, (S)—N-(5-Cyano-4-((2-methoxyethyl)amino)pyridin-2-yl)-7-formyl-6-((N-((tetrahydrofuran-2-yl)methyl)acetamido)methyl)-3,4-dihydro-1,8-naphthyridin-1(2H)-carboxamide] | 8.3 nM | 21.5 nM | > 10000 nM |  |  |  |  |  |  | > 10000 nM |
| COCCNc1cc(NC(=O)N2CCCc3cc(CN(C[C@H]4CCCO4)C(C)=O)c(C=O)nc32)ncc1C#N [Example 109, (R)—N-(5-Cyano-4-((2-methoxyethyl)amino)pyridin-2-yl)-7-formyl-6-((N-((tetrahydrofuran-2-yl)methyl)acetamido)methyl)-3,4-dihydro-1,8-naphthyridin-1(2H)-carboxamide] | 6 nM | 11.1 nM | > 10000 nM |  |  |  |  |  |  | > 10000 nM |
| CN(Cc1cc2c(nc1C=O)N(C(=O)Nc1cc(N[C@@H]3CCOC3)c(C#N)cn1)CCC2)C(=O)[C@H]1CCCO1 [Example 95, N-(5-Cyano-4-(((R)-tetrahydrofuran-3-yl)amino)pyridin-2-yl)-7-formyl-6-(((R)—N-methyltetrahydrofuran-2-carboxamido)methyl)-3,4-dihydro-1,8-naphthyridin-1 (2H)-carboxamide] | 2.8 nM | 12.9 nM | > 10000 nM |  |  |  |  |  |  | > 10000 nM |
| COCCNc1cc(NC(=O)N2CCCc3cc(CN4CC[C@@H](OC)C4=O)c(C=O)nc32)ncc1C#N [Example 45, (R)—N-(5-Cyano-4-((2-methoxyethyl)amino)pyridin-2-yl)-7-formyl-6-((3-methoxy-2-carbonylpyrrolidin-1-yl)methyl)-3,4-dihydro-1,8-naphthyridin-1(2H)-carboxamide] | 1.9 nM | 8.3 nM | > 10000 nM | 2 h | 12100 ng·h/mL | 12300 ng·h/mL | 1.1 h |  | 3760 ng/mL |  |
| COC[C@H](C)Nc1cc(NC(=O)N2CCCc3cc(CN(C)C(=O)[C@H]4CCCO4)c(C=O)nc32)ncc1C#N [Example 92, N-(5-Cyano-4-(((S)-1-methoxypropan-2-yl)amino)pyridin-2-yl)-7-formyl-6-(((R)—N-methyltetrahydrofuran-2-carboxamido)methyl)-3,4-dihydro-1,8-naphthyridin-1(2H)-carboxamide] |  |  |  |  |  |  |  |  |  | > 10000 nM |
| COC[C@H](C)Nc1cc(NC(=O)N2CCCc3cc(CN4CC[C@H](OC)C4=O)c(C=O)nc32)ncc1C#N [Example 90, N-(5-Cyano-4-(((S)-1-methoxypropan-2-yl)amino)pyridin-2-yl)-7-formyl-6-(((S)-3-methoxy-2-carbonylpyrrolidin-1-yl)methyl)-3,4-dihydro-1,8-naphthyridin-1(2H)-carboxamide] |  |  |  |  |  |  |  |  |  | > 10000 nM |
| COCCNc1cc(NC(=O)N2CCCc3cc(CN(C)C(=O)[C@@H]4CCOC4)c(C=O)nc32)ncc1C#N [Example 7, (R)—N-(5-Cyano-4-((2-methoxyethyl)amino)pyridin-2-yl)-7-formyl-6-((N-methyltetrahydrofuran-3-carboxamido)methyl)-3,4-dihydro-1,8-naphthyridin-1(2H)-carb oxamide] | 4.7 nM | 10.6 nM | > 10000 nM |  |  |  |  |  |  | > 10000 nM |
